PubChem BioAssay AID330 (DTP/NCI, 2004)
Where “and” joins values, the source holds several entries; their conditions need not be identical. Equal entries are not always repeated. Inconclusive results and toxic doses are left out. How the source made its calls: active means survival T/C of 150% or more; inactive means T/C below 125% in these data.

Test system: P388 leukemia ip, CD2F1 mice, survival T/C
Experiment: NCI In Vivo Anticancer Drug Screen. Data for tumor model P388 Leukemia (intraperitoneal) in CD2F1 (CDF1) mice
Conditions: endpoint: median survival time, higher = longer survival
In short: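 Mice carrying the transplanted tumor received test compound or vehicle. Survival was recorded in each group, and the value is the treated-group measurement divided by that of the vehicle-treated control group.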

[1] = dose: 100.0 mg/kg/injection, schedule: Q01DX001 (ip), vehicle: Klucel (hydroxypropylcellulose) (HPC)
[2] = dose: 200.0 mg/kg/injection, schedule: Q01DX001 (ip), vehicle: Klucel (hydroxypropylcellulose) (HPC)
[3] = dose: 400.0 mg/kg/injection, schedule: Q01DX001 (ip), vehicle: Klucel (hydroxypropylcellulose) (HPC)
[4] = dose: 50.0 mg/kg/injection, schedule: Q01DX009 (ip), vehicle: Klucel (hydroxypropylcellulose) (HPC)
[5] = dose: 100.0 mg/kg/injection, schedule: Q01DX009 (ip), vehicle: Klucel (hydroxypropylcellulose) (HPC)
[6] = dose: 60.0 mg/kg/injection, schedule: Q01DX005 (ip), vehicle: saline with Tween-80
[7] = dose: 120.0 mg/kg/injection, schedule: Q01DX005 (ip), vehicle: saline with Tween-80
[8] = dose: 6.25 mg/kg/injection, schedule: Q01DX005 (ip), vehicle: Klucel (hydroxypropylcellulose) (HPC)
[9] = dose: 12.5 mg/kg/injection, schedule: Q01DX005 (ip), vehicle: Klucel (hydroxypropylcellulose) (HPC)
[10] = dose: 50.0 mg/kg/injection, schedule: Q01DX009 (ip), vehicle: saline with Tween-80
[11] = dose: 100.0 mg/kg/injection, schedule: Q01DX009 (ip), vehicle: saline with Tween-80
[12] = dose: 200.0 mg/kg/injection, schedule: Q01DX009 (ip), vehicle: saline with Tween-80
[13] = dose: 50.0 mg/kg/injection, schedule: Q01DX005 (ip), vehicle: saline
[14] = dose: 100.0 mg/kg/injection, schedule: Q01DX005 (ip), vehicle: saline
[15] = dose: 50.0 mg/kg/injection, schedule: Q01DX005 (ip), vehicle: saline with Tween-80
[16] = dose: 100.0 mg/kg/injection, schedule: Q01DX005 (ip), vehicle: saline with Tween-80
[17] = dose: 200.0 mg/kg/injection, schedule: Q01DX005 (ip), vehicle: saline with Tween-80

Measured: T/C

O=C(O)C1C=CC2OC2C1C(=O)O (stereo not drawn)
inactive: [1] 87 % of control | [2] 92 % of control | [3] 93 % of control

O=S(=O)(NCCSSCCNS(=O)(=O)c1ccc2ccccc2c1)c1ccc2ccccc2c1
inactive: [4] 91 % of control | [5] 92 % of control | dose: 200.0 mg/kg/injection, schedule: Q01DX009 (ip), vehicle: Klucel (hydroxypropylcellulose) (HPC) 88 % of control

Cc1c(NC(=O)Nc2cc([N+](=O)[O-])ccc2Cl)c(=O)n(-c2ccccc2)n1C
inactive: [6] 94 % of control | [7] 86 % of control

COc1ccc2c(C(=O)c3ccccc3)c3[n+](cc2c1OC)CCc1cc2c(cc1-3)OCO2
inactive: [8] 103 % of control | [9] 103 % of control

O=P(c1ccccc1)(c1ccccc1)c1ccccc1.O=P(c1ccccc1)(c1ccccc1)c1ccccc1.O=P(c1ccccc1)(c1ccccc1)c1ccccc1.O=P(c1ccccc1)(c1ccccc1)c1ccccc1.[Ce+3].[O-][Cl+3]([O-])([O-])O
inactive: dose: 50.0 mg/kg/injection, schedule: Q01DX009 (ip), vehicle: saline + Tween-80 + alcohol 96 % of control | dose: 100.0 mg/kg/injection, schedule: Q01DX009 (ip), vehicle: saline + Tween-80 + alcohol 89 % of control | dose: 200.0 mg/kg/injection, schedule: Q01DX009 (ip), vehicle: saline + Tween-80 + alcohol 87 % of control

NC(=S)N/N=C\C(=N/NC(N)=S)c1cccc([N+](=O)[O-])c1
inactive: dose: 12.5 mg/kg/injection, schedule: Q01DX009 (ip), vehicle: saline with Tween-80 92 % of control | dose: 25.0 mg/kg/injection, schedule: Q01DX009 (ip), vehicle: saline with Tween-80 92 % of control | [10] 93 % of control and 96 % of control | [11] 96 % of control | [12] 96 % of control

CSCC1COC(=O)N1 (stereo not drawn)
inactive: dose: 100.0 mg/kg/injection, schedule: Q04DX002 (ip), vehicle: distilled water + alcohol 100 % of control | dose: 200.0 mg/kg/injection, schedule: Q04DX002 (ip), vehicle: distilled water + alcohol 106 % of control | dose: 400.0 mg/kg/injection, schedule: Q04DX002 (ip), vehicle: distilled water + alcohol 100 % of control

COc1ccc(NC(=O)c2cc3c(cc2Br)OCO3)cc1
inactive: dose: 12.5 mg/kg/injection, schedule: Q01DX009 (ip), vehicle: other 102 % of control | dose: 25.0 mg/kg/injection, schedule: Q01DX009 (ip), vehicle: other 96 % of control | dose: 50.0 mg/kg/injection, schedule: Q01DX009 (ip), vehicle: other 100 % of control | dose: 100.0 mg/kg/injection, schedule: Q01DX009 (ip), vehicle: other 93 % of control | dose: 200.0 mg/kg/injection, schedule: Q01DX009 (ip), vehicle: other 99 % of control | dose: 400.0 mg/kg/injection, schedule: Q01DX009 (ip), vehicle: other 89 % of control

CCCCN=Cc1ccccc1O.CCCCN=Cc1ccccc1O.[Zn]
inactive: [4] 98 % of control | [5] 112 % of control

CCN(CC)CCCNc1cc(OC)cc2nc3cc(Cl)ccc3nc12
inactive: [13] 100 % of control | [14] 106 % of control

C=CCC(C(C)=O)C(=O)OC(C)(C)C (stereo not drawn)
inactive: [13] 101 % of control | [14] 104 % of control | dose: 200.0 mg/kg/injection, schedule: Q01DX005 (ip), vehicle: saline 111 % of control

CCCC(C)C(=O)N(C(C)=O)c1ccc(Cl)c(Cl)c1 (stereo not drawn)
inactive: [10] 103 % of control | [11] 103 % of control | [12] 110 % of control

O=C1NN=C(c2ccc(Br)cc2)CS1
inactive: [10] 92 % of control and 97 % of control | [11] 101 % of control and 87 % of control | [12] 113 % of control and 120 % of control

C(=C1CC(=Cc2ccccc2)C1)c1ccccc1
inactive: [1] 94 % of control | [2] 88 % of control | [3] 88 % of control

NCCn1[nH]c(=O)c2ncccc2c1=O
inactive: [6] 108 % of control | [7] 105 % of control

Cc1cc(NC(=O)C(=O)O)cc2c(=O)cc(C(=O)O)[nH]c12
inactive: dose: 25.0 mg/kg/injection, schedule: Q01DX009 (ip), vehicle: Klucel (hydroxypropylcellulose) (HPC) 102 % of control | [4] 117 % of control and 124 % of control

C=C(C)C1CC2=C(C(=O)OC)C=C(O2)C(C(=C)C)C2OC(=O)/C(=C\C1O)C2O (stereo not drawn)
inactive: dose: 4.0 mg/kg/injection, schedule: Q01DX005 (ip), vehicle: saline + alcohol 103 % of control | dose: 8.0 mg/kg/injection, schedule: Q01DX005 (ip), vehicle: saline + alcohol 103 % of control | dose: 16.0 mg/kg/injection, schedule: Q01DX005 (ip), vehicle: saline + alcohol 99 % of control | dose: 32.0 mg/kg/injection, schedule: Q01DX005 (ip), vehicle: saline + alcohol 99 % of control | dose: 64.0 mg/kg/injection, schedule: Q01DX005 (ip), vehicle: saline + alcohol 101 % of control

NC(=O)CNC(c1ccccc1)c1ccccc1
inactive: dose: 37.5 mg/kg/injection, schedule: Q01DX009 (ip), vehicle: saline with Tween-80 107 % of control | dose: 75.0 mg/kg/injection, schedule: Q01DX009 (ip), vehicle: saline with Tween-80 106 % of control | dose: 150.0 mg/kg/injection, schedule: Q01DX009 (ip), vehicle: saline with Tween-80 100 % of control

COc1cc(/C=C/C(=O)C(CN(C)C)CN(C)C)cc(OC)c1OC
inactive: [8] 100 % of control | [9] 103 % of control

Cc1c(NC(=O)CCCl)c(=O)oc2c(C)c3occc(=O)c3cc12
inactive: dose: 100.0 mg/kg/injection, schedule: Q01DX001 (ip), vehicle: saline with Tween-80 100 % of control | dose: 200.0 mg/kg/injection, schedule: Q01DX001 (ip), vehicle: saline with Tween-80 99 % of control | dose: 400.0 mg/kg/injection, schedule: Q01DX001 (ip), vehicle: saline with Tween-80 90 % of control

Clc1cc2c(nn1)-c1ccccc1C2
inactive: [15] 100 % of control | [16] 105 % of control | [17] 100 % of control

CC(C)C(Nc1ncnc2nc[nH]c12)C(=O)O (stereo not drawn)
inactive: [15] 102 % of control | [16] 102 % of control | [17] 103 % of control

CC(C(N)C(=O)NC(C(=O)O)C1OC(n2ccc(=O)[nH]c2=O)C(O)C1O)C(O)c1ccc(O)cn1 (stereo not drawn)
inactive: dose: 25.0 mg/kg/injection, schedule: Q01DX005 (ip), vehicle: saline 100 % of control | [13] 103 % of control | [14] 100 % of control

c1ccc2c(NCCCCCNc3c4ccccc4nc4ccccc34)c3ccccc3nc2c1
inactive: dose: 0.63 mg/kg/injection, schedule: Q01DX009 (ip), vehicle: other 103 % of control | dose: 1.25 mg/kg/injection, schedule: Q01DX009 (ip), vehicle: other 108 % of control | dose: 2.5 mg/kg/injection, schedule: Q01DX009 (ip), vehicle: other 100 % of control | dose: 3.75 mg/kg/injection, schedule: Q01DX009 (ip), vehicle: other 112 % of control | dose: 5.0 mg/kg/injection, schedule: Q01DX009 (ip), vehicle: other 117 % of control | dose: 10.0 mg/kg/injection, schedule: Q01DX009 (ip), vehicle: other 122 % of control

Cc1cc2c(cc1C)C(O)(C#Cc1ccccc1)c1c(C)ccc(C)c1C2=O (stereo not drawn)
inactive: dose: 100.0 mg/kg/injection, schedule: Q04DX003 (ip), vehicle: saline with Tween-80 100 % of control | dose: 200.0 mg/kg/injection, schedule: Q04DX003 (ip), vehicle: saline with Tween-80 100 % of control | dose: 400.0 mg/kg/injection, schedule: Q04DX003 (ip), vehicle: saline with Tween-80 97 % of control
